Laboratory results reported in US20240285808A1, “MOLECULAR PROBES FOR IN VIVO DETECTION OF ALDEHYDES” (The General Hospital Corporation, priority 2021, published 2024).

Legend:
[1] = test system: lung of SAMP8/SAMR1 mice with TAC; assay: MR imaging of lung in transverse aortic constriction (TAC) model; type: in vivo, mouse; conditions: 20 min post injection
Source text: Combined Heart and Lung Fibrosis Model:
Left ventricular dysfunction with pulmonary hypertension was induced by left thoracotomy transverse aortic constriction surgery (TAC) in 6-month-old senescence-accelerated-prone/resistant mice (SAMP8/SAMR1), which is a well-established model of pressure overload-induced cardiac hypertrophy that can induce heart and lung fibrosis. The transverse aorta was encircled with 7-0 nylon suture and tied tightly around a pre-sterilized, blunt-end of a 27-gauge needle. After securing the knot, the needle was removed, and aortic flow resumed. Another two groups of SAMP8 and SAMR1 mice received sham surgery as control. 3-weeks post-surgery, mice were anesthetized with isoflurane (1.5%) and imaged at a 4.7 Tesla Bruker MRI scanner.
For combined heart and lung imaging, a series of baseline images (2D T1 weighted FLASH for heart and 3D-UTE for lung) were first acquired. 2D T1 weighted FLASH: repetition time/echo time=18.24/3.54 ms; flip angle, 50°; field of view, 36×36 mm^2; matrix size, 138×138 mm^2; slice thickness, 1 mm; acquisition time, 3 minutes 50 seconds. 3D-UTE: repetition time/echo time=4/0.01225 ms; flip angle, 16°; field of view, 32×32 mm^2; matrix size, 128×128 mm^2; slice thickness, 0.25 mm; acquisition time, 3 minutes 36 seconds. Then a bolus of Gd-9 complex was administered i.v. and imaging performed for a period of 40 min p.i. with the repetition acquisition of 2D T1 weighted FLASH and 3D-UTE sequences. Following the imaging session, animals were sacrificed and heart and lung tissue was subjected to histopathologic analysis.
For lung imaging analysis, RARE image, FLASH image pre-contrast and immediately post-contrast were used to define regions of interest (ROIs) in the lung that excluded vessels and airways. A total of 6 lung ROIs were defined on axial UTE images to obtain signal intensity (SI); ROIs in the dorsal muscle in each slice were also defined as reference; ROIs in the field of view without any tissue (air) were used to measure the variation in background signal. Then the lung-to muscle ratio (LMR) or contrast to noise ratio (CNR) was averaged from the 6 slices to calculate changes in LMR (ΔLMR) or CNR (ΔCNR) at each time point.

[2] = test system: human fibrotic/cirrhotic liver associated with NASH and normal liver tissue; assay: LA-ICP-MS gadolinium imaging of human liver sections incubated with Gd-9; type: binding
Description: Liver tissues were obtained from a total of 9 anesthetized patients who underwent surgical resection at Massachusetts General Hospital, and analyzed in accordance with a protocol approved by the Massachusetts General Hospital's Institutional Review Board.
Tissue Analysis for Human Tissues
The dissected tissues were immediately snap frozen in OCT using liquid nitrogen, sectioned into 10-μm-thick slices and stored at −80° C. Subsequently, the tissue sections were first allowed to warm to room temperature for 10 min and then fixed in 60% ethanol for 30 min, and washed with PBS. The following steps were the same as described above for the Sirius red staining and DNPH-reactivity assay.
LA-ICP-MS Gadolinium Imaging Analysis
Sample preparation. Harvested rat livers after MR imaging were immediately snapfrozen in OCT using liquid nitrogen, sectioned into 10-μm-thick slices, stored in −80° C. One slice was assessed by LA-ICP-MS directly. One adjacent slide was incubated with 0.1 mM Gd-9 at 37° C. for 2 h, followed with 0.2 mM NaBH3CN for 2 h and washed with PBS (3×10 min). Another adjacent slide was incubated with 0.1 mM Gd-9 and 10 mM hydrazine at 37° C. for 2 h, followed with 0.2 mM NaBH3CN for 2 hand washed with PBS (3×10 min). Similar procedures were carried out for human tissues. Slides were incubated with 0.1 mM Gd-9 at 37° C. for 2h, followed with 0.2 mM NaBH3CN for 2 h and washed with PBS (3×10 min).
Gadolinium mapping. Elemental images were collected from sections of liver tissue via laser ablation inductively coupled plasma mass spectrometry at the Biomedical National Elemental Imaging Resource (BNEIR). The instrumentation used was a New Wave Research 213 nm laser ablation system with a 10 cm^2 sample chamber, interfaced with an Agilent 7900 ICP-MS system. Samples were ablated in no-gas mode, with helium as a carrier gas at a flow rate of […]. The laser power was 65% and the frequency was 20 Hz. Ablation patterns consisted of continuous lines, with either a 12 μm or […] square beam and a scan speed of 120 μm sec^−1 or 200 μm sec^−1 respectively, as noted. The acquisitions time for gadolinium (mass 157) was 0.015 s. Elemental imaging data was quantified using metal-doped gelatin standards prepared at BNEIR and National Institute of Standards and Technology (NIST) certified references material 1515 (apple leaves). Data reduction was performed in the Iolite software application, using carbon (mass 13) as an internal standard to normalize the data.
The applicability of Gd-9 to assess fibrogenesis in human liver specimens was investigated. Resected human fibrotic/cirrhotic liver associated with NASH (n=5) and normal liver tissue (n=4) (Table C) were sectioned and stained for Lys^Ald.

**Q.** `NN1CCN(C(=O)CCC(C(=O)[O-])N2CCN(CC(=O)[O-])CCN(CC(=O)[O-])CCN(C(CCC(=O)N3CCN(N)CC3)C(=O)[O-])CC2)CC1.[Gd+3]` (stereo not drawn) [Gd-9, cis-1,4-Gd-(CHyd)2] was tested. Which ΔCNR of lung ([1]; SAMP1-TAC) did it give?
**A.** Its ΔCNR of lung is 1.2 ± 0.3.

**Q.** What about the ΔCNR of lung ([1]; SAMP8-Sham) of the same compound?
**A.** Its ΔCNR of lung is 0.8 ± 0.5.

**Q.** And the ΔCNR of lung ([1]; SAMP8-TAC)?
**A.** Its ΔCNR of lung is 3.1 ± 0.9.

**Q.** What about the ΔCNR of lung ([1]; Sham) of the same compound?
**A.** The ΔCNR of lung was 0.4 ± 0.2.

**Q.** And the “average Gd concentration in fibrotic human liver” value ([2]; across all samples)?
**A.** The value was 80.4±15.5 ppm.

**Q.** What about the “average Gd concentration in normal liver” value ([2]; across all samples) of the same compound?
**A.** Its value is 23.7±10.8 ppm.

**Q.** What about the “average Gd concentration in Lys^Ald positive areas” value ([2]; fibrotic human liver slices incubated with 0.1 mM probe) of the same compound?
**A.** Its value is 30-200 ppm Gd.

**Q.** What about the “average Gd concentration in regions with low Lys^Ald” value ([2]; human liver slices incubated with 0.1 mM probe) of the same compound?
**A.** Its value is under 30 ppm Gd.
